Test results from patent publication US12521448B2, “Preparation of solid cyclodextrin complexes for ophthalmic active pharmaceutical ingredient delivery” (Oculis Operations Sarl, priority 2016, dated 2026).

Experiments:
[1] = Dehydration of dexamethasone to 16,17-unsaturated dexamethasone and dexamethasone enol aldehydes during preparation/autoclaving of eye drops; format: physicochemical; conditions: aqueous eye drops
Experimental: The dehydration of dexamethasone during preparation of the aqueous dexamethasone eye drops described in Example 1 (formulations F1, F2, F3, F4, F5 and F6) is determined by quantitative determination of 16,17-unsaturated dexamethasone and the dexamethasone enol aldehydes in the eye drops after manufacturing. Formulations F12, F13 and F14 are prepared as described in F1, that is by dissolving or suspending the ingredients, including dexamethasone, in pure water and autoclaving the mixture in sealed vial at 121° C. for 20 minutes. The substantially clear aqueous vials are removed from the autoclave and become cloudy upon cooling at ambient conditions. […] F13 comprises dexamethasone and γ-cyclodextrin suspended in pure water. F14 comprises dexamethasone suspended in pure water. The effect of excipients and preparation methods on the formation of 16,17-unsaturated dexamethasone and the dexamethasone enol aldehydes is presented as the fraction (in %) of dexamethasone degraded to form 16,17-unsaturated dexamethasone and the dexamethasone enol aldehydes.
The amount of 16,17-unsaturated dexamethasone and dexamethasone enol aldehydes formed, presented as the fraction (in %) of dexamethasone degraded to form 16,17-unsaturated dexamethasone and dexamethasone enol aldehydes, in aqueous eye drops after no autoclaving (i.e., heating to 121° C. for 20 minutes) once, twice and three times is shown in Table 3. […]

[2] = Degradation on heating of drug suspensions in aqueous γ-cyclodextrin solutions (autoclave vs 95° C.); format: physicochemical; conditions: autoclaving with γ-cyclodextrin
Description: Diclofenac is suspended in aqueous solutions containing from 1% (w/v) to 15% (w/v) γ-cyclodextrin.

| fraction of dexamethasone degraded to 16,17-unsaturated dexamethasone and dexamethasone enol aldehydes ([1]; pH 2.5, 0 autoclaving cycles (121° C., 20 min)) | fraction of dexamethasone degraded to 16,17-unsaturated dexamethasone and dexamethasone enol aldehydes ([1]; pH 2.5, 1 autoclaving cycle (121° C., 20 min)) | fraction of dexamethasone degraded to 16,17-unsaturated dexamethasone and dexamethasone enol aldehydes ([1]; pH 2.5, 2 autoclaving cycles (121° C., 20 min)) | fraction of dexamethasone degraded to 16,17-unsaturated dexamethasone and dexamethasone enol aldehydes ([1]; pH 2.5, 3 autoclaving cycles (121° C., 20 min)) | fraction of dexamethasone degraded to 16,17-unsaturated dexamethasone and dexamethasone enol aldehydes ([1]; pH 4.0, 0 autoclaving cycles (121° C., 20 min)) | fraction of dexamethasone degraded to 16,17-unsaturated dexamethasone and dexamethasone enol aldehydes ([1]; pH 4.0, 1 autoclaving cycle (121° C., 20 min)) | fraction of dexamethasone degraded to 16,17-unsaturated dexamethasone and dexamethasone enol aldehydes ([1]; pH 4.0, 2 autoclaving cycles (121° C., 20 min)) | fraction of dexamethasone degraded to 16,17-unsaturated dexamethasone and dexamethasone enol aldehydes ([1]; pH 4.0, 3 autoclaving cycles (121° C., 20 min)) | fraction of dexamethasone degraded to 16,17-unsaturated dexamethasone and dexamethasone enol aldehydes ([1]; pH 5.5, 0 autoclaving cycles (121° C., 20 min)) | fraction of dexamethasone degraded to 16,17-unsaturated dexamethasone and dexamethasone enol aldehydes ([1]; pH 5.5, 1 autoclaving cycle (121° C., 20 min)) | fraction of dexamethasone degraded to 16,17-unsaturated dexamethasone and dexamethasone enol aldehydes ([1]; pH 5.5, 2 autoclaving cycles (121° C., 20 min)) | fraction of dexamethasone degraded to 16,17-unsaturated dexamethasone and dexamethasone enol aldehydes ([1]; pH 5.5, 3 autoclaving cycles (121° C., 20 min)) | fraction of dexamethasone degraded to 16,17-unsaturated dexamethasone and dexamethasone enol aldehydes ([1]; pH 7.0, 0 autoclaving cycles (121° C., 20 min)) | fraction of dexamethasone degraded to 16,17-unsaturated dexamethasone and dexamethasone enol aldehydes ([1]; pH 7.0, 1 autoclaving cycle (121° C., 20 min)) | fraction of dexamethasone degraded to 16,17-unsaturated dexamethasone and dexamethasone enol aldehydes ([1]; pH 7.0, 2 autoclaving cycles (121° C., 20 min)) | fraction of dexamethasone degraded to 16,17-unsaturated dexamethasone and dexamethasone enol aldehydes ([1]; pH 7.0, 3 autoclaving cycles (121° C., 20 min)) | effect of γ-cyclodextrin on aqueous diclofenac solutions during autoclaving [2] | Compound |
| --- | --- | --- | --- | --- | --- | --- | --- | --- | --- | --- | --- | --- | --- | --- | --- | --- | --- |
| 0.08% | 1.06% | 2.29% | 3.12% | 0.08% | 1.14% | 2.19% | 3.03% | 0.08% | 1.22% | 2.27% | 3.46% | 0.08% | 0.86% | 1.64% | 2.57% | – | C[C@@H]1C[C@H]2[C@@H]3CCC4=CC(=O)C=C[C@]4(C)[C@@]3(F)[C@@H](O)C[C@]2(C)[C@@]1(O)C(=O)CO [dexamethasone] |
| – | – | – | – | – | – | – | – | – | – | – | – | – | – | – | – | intense coloring | O=C(O)Cc1ccccc1Nc1c(Cl)cccc1Cl [Diclofenac, diclofenac] |
